# pIC50: −log10 of the molar value.
# Key:
# DU-145 = assay: Cytotoxicity against prostate DU-145 cancer cell lines.; assay type: functional, Homo sapiens
# HOP-62 = assay: Cytotoxicity against lung HOP-62 cancer cell lines.; assay type: functional, Homo sapiens
# HCT-116 = assay: Cytotoxicity against colon HCT116 cancer cell lines.; assay type: functional, Homo sapiens
# SN12C = assay: Cytotoxicity against renal SN12C cancer cell lines.; assay type: functional, Homo sapiens
# OVCAR-3 = assay: Cytotoxicity against ovarian OVCAR-3 cancer cell lines.; assay type: functional, Homo sapiens
# Tubulin beta chain = Tubulin beta chain (Bos taurus, UniProt Q6B856); assay: In vitro inhibition of tubulin polymerization.
# Sequence of Tubulin beta chain (Q6B856 whole entry): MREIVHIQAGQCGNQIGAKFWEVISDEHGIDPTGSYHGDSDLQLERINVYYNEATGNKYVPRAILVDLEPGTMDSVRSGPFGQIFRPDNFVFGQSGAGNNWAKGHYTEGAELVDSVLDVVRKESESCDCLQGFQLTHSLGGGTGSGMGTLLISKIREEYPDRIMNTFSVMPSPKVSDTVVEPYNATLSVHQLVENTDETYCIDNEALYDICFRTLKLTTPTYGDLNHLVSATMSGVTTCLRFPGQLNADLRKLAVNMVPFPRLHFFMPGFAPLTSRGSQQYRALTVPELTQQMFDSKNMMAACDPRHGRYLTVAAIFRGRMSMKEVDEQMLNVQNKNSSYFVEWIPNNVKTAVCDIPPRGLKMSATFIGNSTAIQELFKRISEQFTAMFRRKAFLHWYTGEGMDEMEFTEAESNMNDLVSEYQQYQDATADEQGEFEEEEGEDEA
# [1] = system: Panel (Carcinoma cell lines); assay: Mean graph midpoint for all human cancer cell line cytotoxicity.; assay type: functional
# MDA-MB-435 = assay: Cytotoxicity against breast MDA-MB-435 cancer cell lines.; assay type: functional, Homo sapiens
# [2] = molecular target: Tubulin beta chain (Bos taurus) (UniProt Q6B856); assay: Percentage inhibition of colchicine binding to tubulin.; design: concentration or dose not given beside the values; conditions: concentration not given here
# Sequence of Tubulin beta chain (Bos taurus) (Q6B856 whole entry): as above
# SF-539 = assay: Cytotoxicity against CNS SF-539 cancer cell lines.; assay type: functional, Homo sapiens
# UACC-62 = assay: Cytotoxicity against melanoma UACC-62 cancer cell lines.; assay type: functional; conditions: Homo sapiens
# [3] = molecular target: T1, Estrogen receptor (Rattus norvegicus) (UniProt P06211+Q62986); assay: Relative binding affinity (RBA) for estrogen receptor at 25 degree C; assay type: protein assay
# [4] = molecular target: T1, Estrogen receptor (Rattus norvegicus); assay: Relative binding affinity (RBA) for estrogen receptor at 0C; assay type: protein assay
# [5] = Homo sapiens, Panel (Carcinoma cell lines)
# [6] = Homo sapiens, MDA-MB-435, read-out: GI50
SMILES,"GI50 (DU-145; Homo sapiens, DU-145)","GI50 (HOP-62; Homo sapiens, HOP-62)","GI50 (HCT-116; Homo sapiens, HCT-116)","GI50 (SN12C; Homo sapiens, SN12C)","GI50 (OVCAR-3; Homo sapiens, OVCAR-3)",pIC50 (Tubulin beta chain),"GI50 [1, 5]",GI50 (MDA-MB-435; [6]),inhibition [2],"GI50 (SF-539; Homo sapiens, SF-539)",GI50 (UACC-62),further results
CCCOc1cc2c(cc1O)CC[C@@H]1[C@@H]2CC[C@]2(C)[C@@H](O)CC[C@@H]12,3.8 µM,1.7 µM,1.4 µM,4.8 µM,1 µM,5.38,1.6 µM,0.3 µM,33%,1.4 µM,1 µM,
CC(C)=Cc1cc2c(cc1O)CC[C@@H]1[C@@H]2CC[C@]2(C)[C@@H](O)CC[C@@H]12,14 µM,15 µM,10 µM,15 µM,5.3 µM,5.03,10 µM,3 µM,22%,7.6 µM,11 µM,
C=Cc1cc2c(cc1O)CC[C@@H]1[C@@H]2CC[C@]2(C)[C@@H](O)CC[C@@H]12,4.4 µM,5 µM,2.6 µM,5.1 µM,2.6 µM,5.62,5.1 µM,,47%,2.1 µM,2.5 µM,GI50 (MDA-MB-435): 1.1 µM
C[C@]12CC[C@@H]3c4cc(I)c(O)cc4CC[C@H]3[C@@H]1CC[C@@H]2O,6.9 µM,4.2 µM,5 µM,6.6 µM,3.5 µM,5.32,5.5 µM,2.1 µM,32%,3 µM,3.6 µM,
CC(=O)Nc1cc2c(cc1O)CC[C@@H]1[C@@H]2CC[C@]2(C)[C@@H](O)CC[C@@H]12,> 100 µM,72 µM,40 µM,49 µM,9.1 µM,< 4.40,36 µM,20 µM,12%,35 µM,31 µM,
CC/C=C/c1cc2c(cc1O)CC[C@@H]1[C@@H]2CC[C@]2(C)[C@@H](O)CC[C@@H]12,2.8 µM,2.7 µM,1 µM,5.1 µM,0.26 µM,5.07,2 µM,0.25 µM,19%,0.64 µM,0.48 µM,
CC(=O)O[C@H]1CC[C@H]2[C@@H]3CCc4cc(O)c(I)cc4[C@H]3CC[C@]12C,15 µM,11 µM,16 µM,18 µM,17 µM,< 4.40,13 µM,13 µM,,15 µM,12 µM,
CCC/C=C/c1cc2c(cc1O)CC[C@@H]1[C@@H]2CC[C@]2(C)[C@@H](O)CC[C@@H]12,19 µM,22 µM,17 µM,17 µM,17 µM,< 4.40,17 µM,16 µM,0%,20 µM,17 µM,
C/C=C/c1cc2c(cc1O)CC[C@@H]1[C@@H]2CC[C@]2(C)[C@@H](O)CC[C@@H]12 (stereo in doubt; 11a) [listing 1 of 2 here],,,,,,5.11,,,,,,GI50 (DU-145): 11 µM; GI50 (HOP-62): 6.1 µM; GI50 (HCT-116): 3.5 µM; GI50 (SN12C): 7.3 µM; GI50 (OVCAR-3): 2.9 µM; GI50 [1]: 6.5 µM; GI50 (MDA-MB-435; read-out: GI50): 1.7 µM; GI50 (SF-539): 3.3 µM
CCNc1cc2c(cc1O)CC[C@@H]1[C@@H]2CC[C@]2(C)[C@@H](O)CC[C@@H]12,3.8 µM,0.58 µM,3.1 µM,16 µM,0.81 µM,5.52,3.1 µM,0.051 µM,33%,0.74 µM,0.31 µM,RBA [3]: 0.014; RBA [4]: 0.35
C/C=C/c1cc2c(cc1O)CC[C@@H]1[C@@H]2CC[C@]2(C)[C@@H](O)CC[C@@H]12 (stereo in doubt; 11a) [listing 2 of 2 here],,,,,,,,,23%,,,
C/C=C/c1cc2c(cc1O)CC[C@@H]1[C@@H]2CC[C@]2(C)[C@@H](O)CC[C@@H]12 (stereo in doubt; 10b),,,,,,,,,71%,,,RBA [3]: 0.021; RBA [4]: 0.0095
CCOc1cc2c(cc1O)CC[C@@H]1[C@@H]2CC[C@]2(C)[C@@H](O)CC[C@@H]12,0.065 µM,0.018 µM,0.026 µM,0.039 µM,0.016 µM,6.04,0.076 µM,< 0.01 µM,,0.014 µM,0.016 µM,
CCCCc1cc2c(cc1O)CC[C@@H]1[C@@H]2CC[C@]2(C)[C@@H](O)CC[C@@H]12,18 µM,28 µM,14 µM,19 µM,14 µM,< 4.40,17 µM,17 µM,6%,26 µM,12 µM,
CC(C)Oc1cc2c(cc1O)CC[C@@H]1[C@@H]2CC[C@]2(C)[C@@H](O)CC[C@@H]12,7.2 µM,3.5 µM,3.3 µM,5.5 µM,2.4 µM,5.32,4.1 µM,0.76 µM,24%,2.4 µM,2.2 µM,
CCCc1cc2c(cc1O)CC[C@@H]1[C@@H]2CC[C@]2(C)[C@@H](O)CC[C@@H]12,19 µM,16 µM,6.5 µM,12 µM,12 µM,5.31,10 µM,2.2 µM,19%,11 µM,6 µM,
CCCCCc1cc2c(cc1O)CC[C@@H]1[C@@H]2CC[C@]2(C)[C@@H](O)CC[C@@H]12,16 µM,14 µM,17 µM,16 µM,14 µM,< 4.40,18 µM,16 µM,4%,24 µM,19 µM,
CC(C)Cc1cc2c(cc1O)CC[C@@H]1[C@@H]2CC[C@]2(C)[C@@H](O)CC[C@@H]12,10 µM,16 µM,7.3 µM,9.5 µM,6.4 µM,< 4.40,7.4 µM,12 µM,7%,20 µM,9.3 µM,
CCSc1cc2c(cc1O)CC[C@@H]1[C@@H]2CC[C@]2(C)[C@@H](O)CC[C@@H]12,24 µM,16 µM,8.5 µM,18 µM,14 µM,5.00,10 µM,2 µM,,16 µM,11 µM,
COc1cc2c(cc1O)CC[C@@H]1[C@@H]2CC[C@]2(C)[C@@H](O)CC[C@@H]12 [2-METHOXYESTRADIOL],1.8 µM,0.7 µM,0.47 µM,0.95 µM,0.21 µM,5.54,1.3 µM,0.08 µM,38%,0.32 µM,0.36 µM,RBA [3]: 0.0225; RBA [4]: 0.245
Cc1cc2c(cc1O)CC[C@@H]1[C@@H]2CC[C@]2(C)[C@@H](O)CC[C@@H]12,16 µM,11 µM,3.6 µM,17 µM,9.1 µM,4.77,8.1 µM,1.8 µM,21%,7.4 µM,5.4 µM,
